Read-outs that look alike come from different tables or passages of the source.
Tests used:
HA1 adenosine receptor = target: T1, HA1 adenosine receptor (Homo sapiens, UniProt P30542); assay: Human adenosine A1 receptor affinity (Ki hA1); format: binding
T1 sequence (P30542 1-326): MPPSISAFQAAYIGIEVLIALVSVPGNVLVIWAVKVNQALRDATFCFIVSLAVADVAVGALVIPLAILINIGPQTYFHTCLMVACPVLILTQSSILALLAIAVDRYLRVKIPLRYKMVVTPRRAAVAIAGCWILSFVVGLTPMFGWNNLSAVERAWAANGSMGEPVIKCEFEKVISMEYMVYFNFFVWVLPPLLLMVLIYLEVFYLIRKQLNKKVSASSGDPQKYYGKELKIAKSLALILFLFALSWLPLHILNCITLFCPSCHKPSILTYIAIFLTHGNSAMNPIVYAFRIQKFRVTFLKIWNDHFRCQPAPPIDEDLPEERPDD

[1] = target: T2, human adenosine A2A receptor (Homo sapiens, UniProt P29274); assay: Human adenosine A2A receptor [3H]-SCH-58261 binding assay
T2 construct: expressed in transfected cells; host or cells: CHO cells, Semliki Forest virus expression system; membrane preparation

[2] = affinity to human adenosine A1 receptor
[3] = affinity to human adenosine A2A receptor, read-out: Ki HA2A
[4] = calculated ratio of the affinity to the HA1 receptor to the HA2a receptor
[5] = recombinant human A2A in CHO cell membranes, [3H]-SCH-58261, Cheng-Prussoff, read-out: Ki hA2A

T2 sequence (P29274 whole entry): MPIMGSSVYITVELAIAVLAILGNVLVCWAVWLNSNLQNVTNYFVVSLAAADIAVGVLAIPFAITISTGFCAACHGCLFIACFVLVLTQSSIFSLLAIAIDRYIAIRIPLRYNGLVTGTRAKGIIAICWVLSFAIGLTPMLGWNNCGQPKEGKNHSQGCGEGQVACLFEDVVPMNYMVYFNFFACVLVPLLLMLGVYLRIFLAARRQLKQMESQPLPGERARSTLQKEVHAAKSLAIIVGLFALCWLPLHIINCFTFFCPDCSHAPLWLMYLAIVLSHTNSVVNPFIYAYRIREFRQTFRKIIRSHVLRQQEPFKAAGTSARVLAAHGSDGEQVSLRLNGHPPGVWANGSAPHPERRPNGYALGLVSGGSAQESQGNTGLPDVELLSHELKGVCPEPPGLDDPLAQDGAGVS

Ki (HA1 adenosine receptor; [2]) [nM] | Ki [1, 3] [nM] | selectivity (A1/A2a) [1, 4] | Ki (HA1 adenosine receptor) [nM] | selectivity (A1/A2a) ([1]; ratio KiHA1 divided by KiHA2A) | Ki [1, 5] [nM] | Structure (SMILES)
167 | 5.8 | 28.8 |  |  |  | Nc1cc(C(=O)N2CCC3CCCCC3C2)cc2nc(-c3ccc(Br)o3)nn12 (stereo not drawn) [Example 350]
2020 | 104 | 19.4 |  |  |  | CC1C=CC(C)N1C(=O)c1cc(N)n2nc(-c3nccs3)nc2c1 (stereo not drawn) [Example 302]
67 | 2.6 | 25.8 |  |  |  | C=CCN(C(=O)c1cc(N)n2nc(-c3ccc(Br)o3)nc2c1)C1CCCCC1 [Example 348, 5-Amino-2-(5-bromo-furan-2-yl)-[1,2,4]triazolo[1,5-a]pyridine-7-carboxylic acid allyl-cyclohexyl-amide]
1980 | 47.3 | 41.9 |  |  |  | CC1CCCCN1C(=O)c1cc(N)n2nc(-c3nccs3)nc2c1 (stereo not drawn) [Example 329, (5-Amino-2-thiazol-2-yl-[1,2,4]triazolo[1,5-a]pyridin-7-yl)-(2-methyl-piperidin-1-yl)-methanone]
 |  |  | 417 | 37.9 | 11 | NC(=O)C1CCCN(C(=O)c2cc(N)n3nc(-c4ccc(Br)o4)nc3c2)C1 (stereo not drawn) [Example 394, 1-[5-Amino-2-(5-bromo-furan-2-yl)-[1,2,4]triazolo[1,5-a]pyridine-7-carbonyl]-piperidine-3-carboxylic acid amide]
 |  |  | 3990 | 21 | 190 | CCN(CCOC)C(=O)c1cc(N)n2nc(-c3nccs3)nc2c1 [Example 498, 5-Amino-2-thiazol-2-yl-[1,2,4]triazolo[1,5-a]pyridine-7-carboxylic acid ethyl-(2-methoxy-ethyl)-amide]
1510 | 108 | 13.9 |  |  |  | CCCCCN(C)C(=O)c1cc(N)n2nc(-c3nccs3)nc2c1 [Example 292, 5-Amino-2-thiazol-2-yl-[1,2,4]triazolo[1,5-a]pyridine-7-carboxylic acid methyl-pentyl-amide]
 |  |  | 1290 | 31.7 | 40.8 | COC[C@H]1CCCN1C(=O)c1cc(N)n2nc(-c3ccccn3)nc2c1 [Example 425, (5-Amino-2-pyridin-2-yl-[1,2,4]triazolo[1,5-a]pyridin-7-yl)-(R-2-methoxymethyl-pyrrolidin-1-yl)-methanone]
21.2 | 1.7 | 12.5 |  |  |  | CCN(Cc1ccccc1)C(=O)c1cc(N)n2nc(-c3ccc(Br)o3)nc2c1 [Example 307, 5-Amino-2-(5-bromo-furan-2-yl)-[1,2,4]triazolo[1,5-a]pyridine-7-carboxylic acid benzyl-ethyl-amide]

The next lines start with the compound.

Structure (SMILES) | Ki (HA1 adenosine receptor; [2]) [nM] | Ki [1, 3] [nM] | selectivity (A1/A2a) [1, 4] | Ki (HA1 adenosine receptor) [nM] | selectivity (A1/A2a) ([1]; ratio KiHA1 divided by KiHA2A) | Ki [1, 5] [nM]
Nc1cc(C(=O)NCc2ccc(F)cc2)cc2nc(-c3ccc(Cl)o3)nn12 [Example 245, 5-Amino-2-(5-chloro-furan-2-yl)-[1,2,4]triazolo[1,5-a]pyridine-7-carboxylic acid 4-fluoro-benzylamide] | 289 | 155 | 1.9 |  |  | 
CN(Cc1ccccc1)C(=O)c1cc(N)n2nc(-c3ccoc3)nc2c1 [Example 226, 5-Amino-2-furan-3-yl-[1,2,4]triazolo[1,5-a]pyridine-7-carboxylic acid benzyl-methyl-amide] | 1010 | 121 | 8.4 |  |  | 
COc1ccc(-c2nc3cc(C(=O)NC4CCC4)cc(N)n3n2)s1 [Example 70, 5-Amino-2-(5-methoxy-thiophen-2-yl)-[1,2,4]triazolo[1,5-a]pyridine-7-carboxylic acid cyclobutylamide] | 148 | 113 | 1.3 |  |  | 
Cc1ccc(-c2nc3cc(C(=O)NC4CCCCC4)cc(N)n3n2)o1 [Example 138, 5-Amino-2-(5-methyl-furan-2-yl)-[1,2,4]triazolo[1,5-a]pyridine-7-carboxylic acid cyclohexylamide] | 1270 | 123 | 10.3 |  |  | 
COc1ccccc1CNC(=O)c1cc(N)n2nc(-c3ccc(C)s3)nc2c1 [Example 201, 5-Amino-2-(5-methyl-thiophen-2-yl)-[1,2,4]triazolo[1,5-a]pyridine-7-carboxylic acid 2-methoxy-benzylamide] | 33 | 31.3 | 1.1 |  |  | 
CCN(CC)C(=O)c1cc(N)n2nc(-c3cc(Br)co3)nc2c1 [Example 169, 5-Amino-2-(4-bromo-furan-2-yl)-[1,2,4]triazolo[1,5-a]pyridine-7-carboxylic acid diethylamide] | 407 | 119 | 3.4 |  |  | 
Nc1cc(C(=O)N2CCCCC2)cc2nc(-c3nccs3)nn12 [Example 103, (5-Amino-2-thiazol-2-yl-[1,2,4]triazolo[1,5-a]pyridin-7-yl)-piperidin-1-yl-methanone] | 3530 | 101 | 35.1 |  |  | 
Cn1cccc1-c1nc2cc(C(=O)NC3CCCCC3)cc(N)n2n1 [Example 179, 5-Amino-2-(1-methyl-1H-pyrrol-2-yl)-[1,2,4]triazolo[1,5-a]pyridine-7-carboxylic acid cyclohexylamide] | 779 | 144 | 5.4 |  |  | 
CCCCNC(=O)c1cc(N)n2nc(-c3ccc(Br)o3)nc2c1 [Example 131, 5-Amino-2-(5-bromo-furan-2-yl)-[1,2,4]triazolo[1,5-a]pyridine-7-carboxylic acid butylamide] | 345 | 19.4 | 17.8 |  |  | 
CC(C)N(Cc1ccccc1)C(=O)c1cc(N)n2nc(-c3cc(Br)co3)nc2c1 [Example 173, 5-Amino-2-(4-bromo-furan-2-yl)-[1,2,4]triazolo[1,5-a]pyridine-7-carboxylic acid benzyl-isopropyl-amide] | 73.6 | 44.4 | 1.7 |  |  | 
CCCCCCNC(=O)c1cc(N)n2nc(-c3ccccn3)nc2c1 [Example 47, 5-Amino-2-pyridin-2-yl-[1,2,4]triazolo[1,5-a]pyridine-7-carboxylic acid hexylamide] | 316 | 37.5 | 8.4 |  |  | 
Nc1cc(C(=O)N2CCOCC2)cc2nc(-c3ccc(Br)o3)nn12 [Example 132, [5-Amino-2-(5-bromo-furan-2-yl)-[1,2,4]triazolo[1,5-a]pyridin-7-yl]-morpholin-4-yl-methanone] | 767 | 33.8 | 22.7 |  |  | 
CN(C(=O)c1cc(N)n2nc(-c3ccccn3)nc2c1)C1CCCCC1 [Example 33, 5-Amino-2-pyridin-2-yl-[1,2,4]triazolo[1,5-a]pyridine-7-carboxylic acid cyclohexyl-methyl-amide] | 1170 | 87 | 13.5 |  |  | 
Nc1cc(C(=O)NCc2ccccc2Br)cc2nc(-c3ccco3)nn12 [Example 110, 5-Amino-2-furan-2-yl-[1,2,4]triazolo[1,5-a]pyridine-7-carboxylic acid 2-bromo-benzylamide] | 64.2 | 2.6 | 24.5 |  |  | 
Cc1ccsc1-c1nc2cc(C(=O)NCc3ccccc3Cl)cc(N)n2n1 [Example 191, 5-Amino-2-(3-methyl-thiophen-2-yl)-[1,2,4]triazolo[1,5-a]pyridine-7-carboxylic acid 2-chloro-benzylamide] | 131 | 108 | 1.2 |  |  | 
CCN(C(=O)c1cc(N)n2nc(-c3ccc(Cl)o3)nc2c1)C1CCCCC1 [Example 243, 5-Amino-2-(5-chloro-furan-2-yl)-[1,2,4]triazolo[1,5-a]pyridine-7-carboxylic acid cyclohexyl-ethyl-amide] | 95.6 | 3.3 | 28.6 |  |  | 
Cc1ccsc1-c1nc2cc(C(=O)N3CCCC3)cc(N)n2n1 [Example 188, [5-Amino-2-(3-methyl-thiophen-2-yl)-[1,2,4]triazolo[1,5-a]pyridin-7-yl]-pyrrolidin-1-yl-methanone] | 711 | 226 | 3.1 |  |  | 
COc1ccc(-c2nc3cc(C(=O)NCc4ccccc4OC)cc(N)n3n2)s1 [Example 58, 5-Amino-2-(5-methoxy-thiophen-2-yl)-[1,2,4]triazolo[1,5-a]pyridine-7-carboxylic acid 2-methoxy-benzylamide] | 52.7 | 71.9 | 0.7 |  |  | 
Cc1ccc(-c2nc3cc(C(=O)N(C)Cc4ccccc4)cc(N)n3n2)s1 [Example 116, 5-Amino-2-(5-methyl-thiophen-2-yl)-[1,2,4]triazolo[1,5-a]pyridine-7-carboxylic acid benzyl-methyl-amide] | 170 | 15.3 | 11.1 |  |  | 
CCCNC(=O)c1cc(N)n2nc(-c3cccnc3)nc2c1 [Example 82, 5-Amino-2-pyridin-3-yl-[1,2,4]triazolo[1,5-a]pyridine-7-carboxylic acid propylamide] | 5850 | 309 | 18.9 |  |  | 
CCCCNC(=O)c1cc(N)n2nc(-c3ccoc3)nc2c1 [Example 98, 5-Amino-2-furan-3-yl-[1,2,4]triazolo[1,5-a]pyridine-7-carboxylic acid butylamide] | 767 | 50.5 | 15.2 |  |  | 

Source: patent US6506772B1, “Substituted [1,2,4]triazolo[1,5a]pyridine derivatives with activity as adenosine receptor ligands” (Hoffmann-La Roche Inc., priority 2000, dated 2003)
